Patent US9585865B2, “Small molecule modulators of the cold and menthol receptor TRPM8” (B.R.A.I.N. Biotechnology Research and Information Network AG, priority 2011, dated 2017)
“And” between values parts separate entries of the source, which are not always exact repeats. Identical values can stand only once.

Legend:
human TRPM8 = molecular target: T1, human TRPM8 (Homo sapiens, UniProt Q7Z2W7); experiment: functional cell based calcium assay, cells recombinantly expressing human TRPM8; conditions: for EC50: activator (agonist) of TRPM8, intracellular calcium, calcium-sensitive dye fluorescence; for EC50 as activator of TRPM8 times lower than EC50 as activator of TRPA1: ratio EC50 TRPA1 / EC50 TRPM8
T1 construct: expressed in transfected cells; host or cells: HEK293 (human cells)
Excerpt: (§1) As used herein, a functional cell based assay under standard conditions means evaluating the cellular activity of compounds with regard to the modulation of the intracellular calcium level using cells recombinantly expressing human TRPM8 or human TRPA1. In particular, in this context the term “standard conditions” means an activity test using HEK293 cells recombinantly expressing either human TRPM8 or human TRPA1, which cells have been contacted with a calcium-sensitive dye (such as Fluo-4AM, i.e. Fluo-4-acetoxymethylester), wherein the cells are incubated with the compound to be tested, and receptor modulation is quantitatively detected by calcium-dependent changes is fluorescence intensity. Such a test system is disclosed, inter alia, in Behrendt H J et al., Br. J. Pharmacol. 2004, 141:737-745, which is enclosed herein by reference.
(§2) A screening for novel modulators of TRPM8 was conducted. For the screening, a routine screening setup was used. In particular, the compounds comprised by a compound library were tested for agonistic activity towards TRPM8 and a dose response analysis of the most promising candidates was conducted (TRPM8 versus TRPA1). In particular, promising candidates were analyzed with regard to their EC50 values as well as their efficacy values, and 7 development candidates were selected (i.e. Compounds I.3, II.3, III.3, IV.3, V.3, VI.3, and VII.3, as described herein above).
(§3) For the above analysis, a functional cell based assay under standard conditions as described herein was used, i.e. the cellular activity of the compounds with regard to the modulation of the intracellular calcium level was evaluated using cells recombinantly expressing human TRPM8 or human TRPA1. In particular, human cells recombinantly expressing either human TRPM8 or human TRPA1 were used, which cells have been contacted with a calcium-sensitive dye, wherein the cells were incubated with the compound to be tested, and receptor modulation was quantitatively detected by calcium-dependent changes in fluorescence intensity. Such a test system is disclosed, inter alia, in Behrendt H J et al., Br. J. Pharmacol. 2004, 141:737-745, which is enclosed herein by reference. Such a test system is also disclosed, inter alia, in WO 2010/026094, which is also enclosed herein by reference. However, it should be understood that any screening method and method suitable for evaluating the agonistic activity of compounds towards a channel (such as TRPM8) can be used. Suitable methods are routine and known to the skilled person.

human TRPA1 = molecular target: T2, human TRPA1 (Homo sapiens, UniProt O75762); experiment: functional cell based calcium assay, cells recombinantly expressing human TRPA1; conditions: activator (agonist) of TRPA1; intracellular calcium, calcium-sensitive dye fluorescence
T2 construct: expressed in transfected cells; host or cells: HEK293 (human cells)
Excerpt: as §1, §2, §3

T1 sequence (Q7Z2W7 whole entry): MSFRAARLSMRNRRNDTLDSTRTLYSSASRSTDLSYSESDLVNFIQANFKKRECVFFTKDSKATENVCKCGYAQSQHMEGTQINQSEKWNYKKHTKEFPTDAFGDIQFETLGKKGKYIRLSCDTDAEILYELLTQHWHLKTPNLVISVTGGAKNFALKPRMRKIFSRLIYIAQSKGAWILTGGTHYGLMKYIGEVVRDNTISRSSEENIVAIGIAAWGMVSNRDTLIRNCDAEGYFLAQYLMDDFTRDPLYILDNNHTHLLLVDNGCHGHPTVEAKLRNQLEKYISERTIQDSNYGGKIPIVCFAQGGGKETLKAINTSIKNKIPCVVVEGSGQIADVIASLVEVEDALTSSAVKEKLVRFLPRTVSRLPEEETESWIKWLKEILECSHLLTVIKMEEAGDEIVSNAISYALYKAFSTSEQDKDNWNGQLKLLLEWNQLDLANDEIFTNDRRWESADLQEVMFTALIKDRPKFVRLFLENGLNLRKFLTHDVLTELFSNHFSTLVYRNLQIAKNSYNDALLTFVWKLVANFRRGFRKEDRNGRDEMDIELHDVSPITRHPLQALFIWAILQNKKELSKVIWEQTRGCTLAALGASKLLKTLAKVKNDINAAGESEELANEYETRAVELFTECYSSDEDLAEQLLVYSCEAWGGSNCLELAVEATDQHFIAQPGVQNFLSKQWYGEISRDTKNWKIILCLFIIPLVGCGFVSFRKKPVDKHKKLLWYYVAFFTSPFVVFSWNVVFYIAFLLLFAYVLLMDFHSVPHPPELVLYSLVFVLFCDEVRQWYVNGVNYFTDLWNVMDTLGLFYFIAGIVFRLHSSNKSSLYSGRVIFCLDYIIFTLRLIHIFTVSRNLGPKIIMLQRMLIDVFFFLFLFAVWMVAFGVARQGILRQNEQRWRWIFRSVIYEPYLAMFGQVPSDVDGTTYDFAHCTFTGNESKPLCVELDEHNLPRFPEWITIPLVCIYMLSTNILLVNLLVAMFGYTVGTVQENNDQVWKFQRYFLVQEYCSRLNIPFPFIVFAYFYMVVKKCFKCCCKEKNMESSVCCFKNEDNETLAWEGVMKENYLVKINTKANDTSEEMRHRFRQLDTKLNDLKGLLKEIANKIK
T2 sequence (O75762 whole entry): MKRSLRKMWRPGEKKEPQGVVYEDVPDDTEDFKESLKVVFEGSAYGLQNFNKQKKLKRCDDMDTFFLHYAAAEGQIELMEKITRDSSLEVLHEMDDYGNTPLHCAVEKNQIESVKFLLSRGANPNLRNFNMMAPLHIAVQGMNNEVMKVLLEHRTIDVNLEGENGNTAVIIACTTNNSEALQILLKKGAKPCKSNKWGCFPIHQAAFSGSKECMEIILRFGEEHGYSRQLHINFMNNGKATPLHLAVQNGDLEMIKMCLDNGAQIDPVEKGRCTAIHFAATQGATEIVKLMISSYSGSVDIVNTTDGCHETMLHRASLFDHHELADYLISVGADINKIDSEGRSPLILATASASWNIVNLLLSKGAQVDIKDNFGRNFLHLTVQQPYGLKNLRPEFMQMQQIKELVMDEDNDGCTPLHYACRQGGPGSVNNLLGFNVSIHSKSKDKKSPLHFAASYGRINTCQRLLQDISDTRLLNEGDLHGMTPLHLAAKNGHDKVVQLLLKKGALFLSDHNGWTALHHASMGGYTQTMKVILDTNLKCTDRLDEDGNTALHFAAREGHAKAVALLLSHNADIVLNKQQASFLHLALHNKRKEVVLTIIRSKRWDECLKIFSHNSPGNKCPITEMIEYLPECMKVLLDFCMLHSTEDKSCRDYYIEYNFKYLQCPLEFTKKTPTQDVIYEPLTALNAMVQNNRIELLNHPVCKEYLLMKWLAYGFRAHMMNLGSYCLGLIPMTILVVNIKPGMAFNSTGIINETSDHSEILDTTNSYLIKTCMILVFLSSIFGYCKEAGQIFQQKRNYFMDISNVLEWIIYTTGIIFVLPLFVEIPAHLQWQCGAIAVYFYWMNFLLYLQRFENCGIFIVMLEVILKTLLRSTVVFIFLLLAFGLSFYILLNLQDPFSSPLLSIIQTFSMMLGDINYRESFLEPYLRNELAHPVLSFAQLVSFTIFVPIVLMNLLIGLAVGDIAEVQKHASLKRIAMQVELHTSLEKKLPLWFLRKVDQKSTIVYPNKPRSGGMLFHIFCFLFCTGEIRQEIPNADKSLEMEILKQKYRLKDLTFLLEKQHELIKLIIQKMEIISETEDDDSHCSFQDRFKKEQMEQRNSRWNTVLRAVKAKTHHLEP

Structure (SMILES) | EC50 (human TRPM8) | EC50 as activator of TRPM8 times lower than EC50 as activator of TRPA1 (human TRPM8) | EC50 (human TRPA1)
CC(C)C(CCNCCCN(C)C)c1ccc(Cl)cc1 (stereo not drawn) [Compound VII.3, [3-(4-chlorophenyl)-4-methylpentyl][3-(dimethylamino)propyl]amine] | ~10.9 µM and 10.9 µM | about 5.2 times | ~56.6 µM and 56.6 µM
CCCc1cc(=O)[nH]c(SCC(=O)Nc2cc(Cl)ccc2Cl)n1 [Compound IV.3, N-(2,5-dichlorophenyl)-2-[(6-oxo-4-propyl-1,6-dihydropyrimidin-2-yl)sulfanyl]acetamide] | ~4.12 µM and 4.12 µM | about 28.6 times | ~118 µM and 118 µM
Cc1nc2ccccc2n1CCC(=O)N1CCN(Cc2ccc3c(c2)OCO3)CC1 [Compound V.3, 1-[4-(2H-1,3-benzodioxol-5-ylmethyl)piperazin-1-yl]-3-(2-methyl-1H-1,3-benzodiazol-1-yl)propan-1-one] | ~7.53 µM and 7.53 µM | about 18.4 times | ~138 µM and 138 µM
Cc1ccc(-c2cc(C(=O)N/N=C/c3ccncc3)[nH]n2)s1 [Compound III.3, 3-(5-methylthiophen-2-yl)-N′-[(1E)-pyridin-4-ylmethylidene]-1H-pyrazole-5-carbohydrazide] | ~5.27 µM and 5.27 µM | about 21.5 times | ~113 µM and 113 µM

Further lines, results first:

EC50 (human TRPM8) | EC50 as activator of TRPM8 times lower than EC50 as activator of TRPA1 (human TRPM8) | EC50 (human TRPA1) | Structure (SMILES)
~2.01 µM and 2.01 µM | about 36 times | ~72.4 µM and 72.4 µM | COc1ccc2c(=O)c(-c3ccccc3)c(C)oc2c1 [Compound I.3, 7-methoxy-2-methyl-3-phenyl-4H-chromen-4-one]
~8.01 µM and 8.01 µM | about 15.4 times | ~123 µM and 123 µM | COc1ccc(OC)c(NC=C2C(=O)CC(C)(C)CC2=O)c1 [Compound II.3, 2-{[(2,5-dimethoxyphenyl)amino]methylidene}-5,5-dimethylcyclohexane-1,3-dione]
~8.15 µM and 8.15 µM | about 13.2 times | ~108 µM and 108 µM | Cc1ccc(C(=O)NCC2(c3ccccc3)CCOCC2)cc1 [Compound VI.3, 4-methyl-N-[(4-phenyloxan-4-yl)methyl]benzamide]
